Test results from PubChem BioAssay AID1671277.

Biological target: Tyrosine-protein kinase Fgr (Homo sapiens) (UniProt P09769)
Assay: FGR kinase inhibition, dose response, biochemical, Z'-LYTE, FRET readout, direct format (AID 1671277)
Details: Z'-LYTE FRET kinase activity, recombinant FGR

Tyrosine-protein kinase Fgr (Homo sapiens), sequence (P09769 whole entry, looked up): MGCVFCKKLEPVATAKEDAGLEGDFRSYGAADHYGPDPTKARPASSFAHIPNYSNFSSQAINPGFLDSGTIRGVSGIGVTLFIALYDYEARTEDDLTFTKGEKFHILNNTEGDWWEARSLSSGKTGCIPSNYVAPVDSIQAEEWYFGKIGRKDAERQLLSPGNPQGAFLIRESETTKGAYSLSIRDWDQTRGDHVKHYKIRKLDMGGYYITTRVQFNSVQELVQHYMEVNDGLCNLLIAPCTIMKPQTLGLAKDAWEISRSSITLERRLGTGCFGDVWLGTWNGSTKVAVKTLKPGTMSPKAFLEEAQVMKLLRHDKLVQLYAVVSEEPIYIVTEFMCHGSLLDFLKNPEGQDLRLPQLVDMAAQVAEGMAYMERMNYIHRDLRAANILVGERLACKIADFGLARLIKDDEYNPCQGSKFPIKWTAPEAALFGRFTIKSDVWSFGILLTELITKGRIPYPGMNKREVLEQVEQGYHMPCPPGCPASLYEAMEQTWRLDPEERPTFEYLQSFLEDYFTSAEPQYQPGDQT

- IC50: 919 nM
Structure (SMILES): COc1cc2ncnc(Nc3cccc(Cl)c3)c2cc1OC
